Like-named read-outs stand apart in the source and are kept apart here.
Legend:
[1] = target: PTK2 (FAK) (Homo sapiens, UniProt Q05397); assay: Z'-LYTE SelectScreen biochemical kinase assay PTK2 (FAK)
Excerpt: (§1) Thermo Fisher Scientific SelectScreen™ Biochemical Kinase Profiling Service Z′-LYTE™ Screening Protocol and Assay Conditions Assay Theory
(§2) The […] biochemical assay employs a fluorescence-based, coupled-enzyme format and is based on the differential sensitivity of phosphorylated and non-phosphorylated peptides to proteolytic cleavage. The peptide substrate is labeled with two fluorophores—one at each end—that make up a FRET pair. In the primary reaction, the kinase transfers the gamma-phosphate of ATP to a single tyrosine, serine or threonine residue in a synthetic FRET-peptide. In the secondary reaction, a site-specific protease recognizes and cleaves non-phosphorylated FRET-peptides. Phosphorylation of FRET-peptides suppresses cleavage by the Development Reagent. Cleavage disrupts FRET between the donor (i.e., coumarin) and acceptor (i.e., fluorescein) fluorophores on the FRET-peptide, whereas uncleaved, phosphorylated FRET-peptides maintain FRET. A ratiometric method, which calculates the ratio (Emission Ratio=Coumarin emission (445 nm)/Fluorescein emission (520 nm)) of donor emission to acceptor emission after excitation of the donor fluorophore at 400 nm, is used to quantitate reaction progress, as shown in the equation below. A significant benefit of this ratiometric method for quantitating reaction progress is the elimination of well-to-well variations in FRET-peptide concentration and signal intensities. As a result, the assay yields very high Z′-factor values (>0.7) at a low percent phosphorylation. Both cleaved and uncleaved FRET-peptides contribute to the fluorescence signals and therefore to the Emission Ratio. The extent of phosphorylation of the FRET-peptide can be calculated from the Emission Ratio. The Emission Ratio will remain low if the FRET-peptide is phosphorylated (i.e., no kinase inhibition) and will be high if the FRET-peptide is non-phosphorylated (i.e., kinase inhibition).
(§3) The Test Compounds are screened in 1% DMSO (final) in the well. For 10 point titrations, 3-fold serial dilutions are conducted from the starting concentration of the customer's choosing.
(§4) All Peptide/Kinase Mixtures are diluted to a 2× working concentration in the appropriate Kinase Buffer (see section Kinase Specific Assay Conditions for a complete description).
(§5) All ATP Solutions are diluted to a 4× working concentration in Kinase Buffer (50 mM HEPES pH 7.5, 0.01% BRIJ-35, 10 mM MgCl2, 1 mM EGTA). ATP Km apparent is previously determined using a Z″-LYTE assay.
(§6) The Development Reagent is diluted in Development Buffer (see section Kinase-Specific Assay Conditions—Direct and Cascade for a complete description).
(§7) Bar-coded Corning, low volume NBS, black 384-well plate (Corning Cat. #4514) • 1. 100 nL—100× Test Compound in 100% DMSO • 2. 2.4 μL—Kinase buffer • 3. 5 μL—2× Peptide/Kinase Mixture • 4. 2.5 μL—4×ATP Solution • 5. 30—second plate shake • 6. 60—minute Kinase Reaction incubation at room temperature • 7. 5 μL—Development Reagent Solution • 8. 30—second plate shake • 9. 60—minute Development Reaction incubation at room temperature • 10. Read on fluorescence plate reader and analyze the data Z′-LYTE Assay Controls
(§8) SelectScreen Kinase Profiling Service uses XLfit from IDBS. The dose response curve is curve fit to model number 205 (sigmoidal dose-response model).
The 2×PTK2 (FAK)/Tyr 07 mixture is prepared in 50 mM HEPES pH 7.5, 0.01% BRIJ-35, 10 mM MgCl2, 1 mM EGTA. The final 10 μL Kinase Reaction consists of 12.5-100 ng PTK2 (FAK) and 2 μM Tyr 07 in 50 mM HEPES pH 7.5, 0.01% BRIJ-35, 10 mM MgCl2, 1 mM EGTA. After the 1 hour Kinase Reaction incubation, 5 μL of a 1:16 dilution of Development Reagent B is added.

[2] = target: RPS6KB1 (p70S6K) (Homo sapiens, UniProt P23443); assay: Z'-LYTE SelectScreen biochemical kinase assay RPS6KB1 (p70S6K)
Chain of RPS6KB1 (p70S6K) (P23443 whole entry): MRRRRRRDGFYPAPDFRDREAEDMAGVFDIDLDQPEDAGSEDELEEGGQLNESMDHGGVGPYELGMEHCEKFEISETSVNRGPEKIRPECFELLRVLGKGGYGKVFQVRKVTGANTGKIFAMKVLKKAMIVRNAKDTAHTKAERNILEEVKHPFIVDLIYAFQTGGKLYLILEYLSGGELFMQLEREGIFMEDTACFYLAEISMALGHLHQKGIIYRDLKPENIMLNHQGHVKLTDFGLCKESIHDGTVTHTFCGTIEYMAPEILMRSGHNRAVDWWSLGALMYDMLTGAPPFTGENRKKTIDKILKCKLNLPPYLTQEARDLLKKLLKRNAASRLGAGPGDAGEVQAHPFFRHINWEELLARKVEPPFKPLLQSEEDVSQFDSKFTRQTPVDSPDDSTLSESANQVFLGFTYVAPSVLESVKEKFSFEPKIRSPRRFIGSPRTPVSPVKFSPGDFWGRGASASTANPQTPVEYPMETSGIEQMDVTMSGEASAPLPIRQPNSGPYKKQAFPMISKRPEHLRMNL
Excerpt: as §1, §2, §3, §4, §5, §6, §7, §8
The 2×RPS6 KB1 (p70S6K)/Ser/Thr 07 mixture is prepared in 50 mM HEPES pH 7.5, 0.01% BRIJ-35, 10 mM MgCl2, 1 mM EGTA. The final 10 μL Kinase Reaction consists of 2.87-17.7 ng RPS6 KB1 (p70S6K) and 2 μM Ser/Thr 07 in 50 mM HEPES pH 7.5, 0.01% BRIJ-35, 10 mM MgCl2, 1 mM EGTA. After the 1 hour Kinase Reaction incubation, 5 μL of a 1:45000 dilution of Development Reagent A is added.

[3] = target: RET (Homo sapiens, UniProt P07949); assay: Z'-LYTE SelectScreen biochemical kinase assay RET
Chain of RET (P07949 29-1114): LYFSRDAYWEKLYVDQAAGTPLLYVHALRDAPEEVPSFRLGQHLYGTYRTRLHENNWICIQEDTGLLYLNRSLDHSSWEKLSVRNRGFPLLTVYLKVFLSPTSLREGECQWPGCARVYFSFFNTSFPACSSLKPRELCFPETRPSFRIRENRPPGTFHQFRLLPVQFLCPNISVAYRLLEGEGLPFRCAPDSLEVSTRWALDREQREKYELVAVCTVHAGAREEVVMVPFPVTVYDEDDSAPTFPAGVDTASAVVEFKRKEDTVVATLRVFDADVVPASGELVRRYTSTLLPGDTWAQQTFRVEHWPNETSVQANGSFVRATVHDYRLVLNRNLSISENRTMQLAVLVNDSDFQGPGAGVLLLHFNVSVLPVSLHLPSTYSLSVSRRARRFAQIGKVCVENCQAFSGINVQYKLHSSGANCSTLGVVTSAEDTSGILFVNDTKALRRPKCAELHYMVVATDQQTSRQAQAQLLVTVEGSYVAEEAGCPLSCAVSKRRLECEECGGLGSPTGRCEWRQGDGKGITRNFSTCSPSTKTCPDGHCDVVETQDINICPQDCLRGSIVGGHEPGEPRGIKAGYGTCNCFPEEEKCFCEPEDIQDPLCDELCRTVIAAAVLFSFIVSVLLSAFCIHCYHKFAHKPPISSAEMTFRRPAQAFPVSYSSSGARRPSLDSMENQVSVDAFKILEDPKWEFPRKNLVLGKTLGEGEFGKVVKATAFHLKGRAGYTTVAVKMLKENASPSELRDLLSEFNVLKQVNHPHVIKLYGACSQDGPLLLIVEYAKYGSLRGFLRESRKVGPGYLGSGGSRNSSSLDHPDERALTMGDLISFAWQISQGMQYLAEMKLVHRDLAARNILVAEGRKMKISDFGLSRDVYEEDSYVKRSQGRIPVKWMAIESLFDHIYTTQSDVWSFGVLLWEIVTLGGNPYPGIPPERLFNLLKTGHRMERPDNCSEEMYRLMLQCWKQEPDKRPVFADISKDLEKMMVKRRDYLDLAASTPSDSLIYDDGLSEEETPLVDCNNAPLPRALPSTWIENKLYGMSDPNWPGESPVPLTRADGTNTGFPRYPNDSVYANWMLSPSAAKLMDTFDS
Excerpt: as §1, §2, §3, §4, §5, §6, §7, §8
The 2×RET/Tyr 02 mixture is prepared in 50 mM HEPES pH 7.5, 0.01% BRIJ-35, 10 mM MgCl2, 1 mM EGTA. The final 10 μL Kinase Reaction consists of 0.49-3.64 ng RET and 2 μM Tyr 02 in 50 mM HEPES pH 7.5, 0.01% BRIJ-35, 10 mM MgCl2, 1 mM EGTA. After the 1 hour Kinase Reaction incubation, 5 μL of a 1:128 dilution of Development Reagent A is added.

[4] = target: PDGFRA (PDGFR alpha) (Homo sapiens, UniProt P16234); assay: Z'-LYTE SelectScreen biochemical kinase assay PDGFRA (PDGFR alpha)
Chain of PDGFRA (PDGFR alpha) (P16234 24-1089): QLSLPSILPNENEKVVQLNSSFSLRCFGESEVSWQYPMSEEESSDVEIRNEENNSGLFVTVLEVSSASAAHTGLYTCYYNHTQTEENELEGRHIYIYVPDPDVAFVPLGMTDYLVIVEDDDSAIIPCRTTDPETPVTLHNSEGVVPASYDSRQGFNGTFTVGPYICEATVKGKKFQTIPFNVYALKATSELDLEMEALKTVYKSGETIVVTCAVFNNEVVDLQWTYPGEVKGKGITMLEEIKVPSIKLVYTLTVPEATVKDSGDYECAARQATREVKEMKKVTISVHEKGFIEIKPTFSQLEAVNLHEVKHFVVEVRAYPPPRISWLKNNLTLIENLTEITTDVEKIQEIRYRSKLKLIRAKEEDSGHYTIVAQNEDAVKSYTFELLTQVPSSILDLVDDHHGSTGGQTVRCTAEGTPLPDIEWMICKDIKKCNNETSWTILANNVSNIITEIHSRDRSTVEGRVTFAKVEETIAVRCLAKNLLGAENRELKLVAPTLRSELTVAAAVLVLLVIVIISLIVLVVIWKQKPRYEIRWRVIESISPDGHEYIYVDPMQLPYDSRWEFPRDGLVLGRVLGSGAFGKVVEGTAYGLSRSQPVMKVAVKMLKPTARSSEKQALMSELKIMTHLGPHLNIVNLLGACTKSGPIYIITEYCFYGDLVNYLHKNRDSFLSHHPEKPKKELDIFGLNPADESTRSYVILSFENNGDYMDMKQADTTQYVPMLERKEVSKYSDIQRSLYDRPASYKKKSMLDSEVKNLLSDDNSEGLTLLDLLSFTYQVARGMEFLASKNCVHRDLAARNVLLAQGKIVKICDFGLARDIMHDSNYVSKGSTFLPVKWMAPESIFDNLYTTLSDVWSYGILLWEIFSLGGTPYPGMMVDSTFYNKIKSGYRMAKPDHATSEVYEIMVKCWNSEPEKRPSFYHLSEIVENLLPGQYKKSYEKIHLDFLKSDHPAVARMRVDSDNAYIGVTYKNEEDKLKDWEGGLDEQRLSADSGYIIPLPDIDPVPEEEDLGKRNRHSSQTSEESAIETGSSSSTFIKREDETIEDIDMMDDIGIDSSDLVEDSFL
Excerpt: as §1, §2, §3, §4, §5, §6, §7, §8
The 2×PDGFRA (PDGFR alpha)/Tyr 04 mixture is prepared in 50 mM HEPES pH 7.5, 0.01% BRIJ-35, 10 mM MgCl2, 4 mM MnCl2, 1 mM EGTA, 2 mM DTT. The final 10 μL Kinase Reaction consists of 1.54-22.6 ng PDGFRA (PDGFR alpha) and 2 μM Tyr 04 in 50 mM HEPES pH 7.5, 0.01% BRIJ-35, 10 mM MgCl2, 2 mM MnCl2, 1 mM EGTA, 1 mM DTT. After the 1 hour Kinase Reaction incubation, 5 μL of a 1:64 dilution of Development Reagent B is added.

[5] = 10 μmolar compound concentration, ATP at Km app, read-out: PTK2 (FAK) inhibition
[6] = read-out: % Inhibition mean PTK2 (FAK)
[7] = 10 μmolar compound concentration, ATP at Km app, read-out: RPS6KB1 (p70S6K) inhibition
[8] = read-out: % Inhibition mean RPS6KB1 (p70S6K)
[9] = 10 μmolar compound concentration, ATP at Km app, read-out: RET inhibition
[10] = read-out: % Inhibition mean RET
[11] = 10 μmolar compound concentration, ATP at Km app, read-out: PDGFRA (PDGFR alpha) inhibition
[12] = read-out: % Inhibition mean PDGFRA (PDGFR alpha)

Chain of PTK2 (FAK) (Q05397 whole entry): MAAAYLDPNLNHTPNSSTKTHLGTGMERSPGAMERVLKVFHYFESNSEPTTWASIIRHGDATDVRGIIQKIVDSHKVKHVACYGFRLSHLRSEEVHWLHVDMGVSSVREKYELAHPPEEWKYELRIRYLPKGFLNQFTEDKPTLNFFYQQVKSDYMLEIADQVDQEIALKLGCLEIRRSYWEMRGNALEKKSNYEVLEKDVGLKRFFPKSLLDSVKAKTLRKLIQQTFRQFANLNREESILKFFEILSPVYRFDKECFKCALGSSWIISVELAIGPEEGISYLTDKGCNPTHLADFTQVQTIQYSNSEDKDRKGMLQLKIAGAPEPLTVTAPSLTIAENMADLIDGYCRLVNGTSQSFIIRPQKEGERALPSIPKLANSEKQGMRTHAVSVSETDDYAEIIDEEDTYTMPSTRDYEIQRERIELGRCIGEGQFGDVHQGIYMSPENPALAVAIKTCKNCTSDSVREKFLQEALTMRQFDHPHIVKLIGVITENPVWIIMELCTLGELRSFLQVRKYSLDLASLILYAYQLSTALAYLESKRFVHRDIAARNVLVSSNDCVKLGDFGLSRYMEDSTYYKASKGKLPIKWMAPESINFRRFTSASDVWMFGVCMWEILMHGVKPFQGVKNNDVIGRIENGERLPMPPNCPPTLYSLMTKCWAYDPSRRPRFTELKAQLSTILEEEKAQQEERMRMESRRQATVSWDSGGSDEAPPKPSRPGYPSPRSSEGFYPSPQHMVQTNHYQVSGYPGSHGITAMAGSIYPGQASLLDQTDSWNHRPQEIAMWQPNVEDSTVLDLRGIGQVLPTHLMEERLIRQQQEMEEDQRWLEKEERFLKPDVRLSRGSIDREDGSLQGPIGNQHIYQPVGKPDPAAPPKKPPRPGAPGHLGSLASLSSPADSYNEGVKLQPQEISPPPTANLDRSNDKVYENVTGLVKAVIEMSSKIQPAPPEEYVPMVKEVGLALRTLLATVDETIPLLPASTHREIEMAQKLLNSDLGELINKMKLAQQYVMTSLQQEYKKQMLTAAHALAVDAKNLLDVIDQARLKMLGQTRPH

| Compound | inhibition at 10 µM [1, 5] [%] | inhibition at 10 µM [1, 6] [%] | inhibition at 10 µM [2, 7] [%] | inhibition at 10 µM [2, 8] [%] | inhibition at 10 µM [3, 9] [%] | inhibition at 10 µM [3, 10] [%] | inhibition at 10 µM [4, 11] [%] | inhibition at 10 µM [4, 12] [%] |
| --- | --- | --- | --- | --- | --- | --- | --- | --- |
| CCn1ncc2c1CCC(Nc1nc3c(-c4cccc(Cl)c4)cccn3n1)C2 (stereo not shown) [Example 59, [8-(3-Chloro-phenyl)-[1,2,4]triazolo[1,5-a]pyridine-2-yl]-(1-ethyl-4,5,6,7-tetrahydro-1H-indazol-5-yl)-amine] | < 40 | 16 | < 40 | 6 | < 40 | 29 | < 40 | 5 |
| CCn1ncc2c1CCC(Nc1nc3c(-c4cccnc4)cccn3n1)C2 (stereo not shown) [Example 63, (1-Ethyl-4,5,6,7-tetrahydro-1H-indazol-5-yl)-(8-pyridin-3-yl-[1,2,4]triazolo[1,5-a]pyridine-2-yl)-amine] | < 40 | 13 | < 40 | 3 | < 40 | 20 | < 40 | 20 |
| CCn1ncc2c1CCC(Nc1nc3c(-c4ccc(C)nc4)cccn3n1)C2 (stereo not shown) [Example 67, (1-Ethyl-4,5,6,7-tetrahydro-1H-indazol-5-yl)-[8-(6-methyl-pyridin-3-yl)-[1,2,4]triazolo[1,5-a]pyridine-2-yl]-amine] | < 40 | 27 | < 40 | 23 | < 40 | 24 | < 40 | 20 |
| CCn1ncc2c1CCC(Nc1nc3c(-c4cnccc4OC)cccn3n1)C2 (stereo not shown) [Example 68, (1-Ethyl-4,5,6,7-tetrahydro-1H-indazol-5-yl)-[8-(4-methoxy-pyridin-3-yl)-[1,2,4]triazolo[1,5-a]pyridine-2-yl]-amine] | < 40 | 28 | < 40 | 17 | < 40 | 28 | < 40 | 23 |
| CCn1ncc2c1CCC(Nc1nc3c(-c4cccnc4OC)cccn3n1)C2 (stereo not shown) [Example 69, (1-Ethyl-4,5,6,7-tetrahydro-1H-indazol-5-yl)-[8-(2-methoxy-pyridin-3-yl)-[1,2,4]triazolo[1,5-a]pyridine-2-yl]-amine] | < 40 | 24 | < 40 | 31 | < 40 | 16 | < 40 | 17 |
| CCn1ncc2c1CCC(Nc1nc3c(-c4cncc(OC)c4)cccn3n1)C2 (stereo not shown) [Example 70, (1-Ethyl-4,5,6,7-tetrahydro-1H-indazol-5-yl)-[8-(5-methoxy-pyridin-3-yl)-[1,2,4]triazolo[1,5-a]pyridine-2-yl]-amine] | < 40 | 14 | < 40 | -3 | < 40 | 32 | < 40 | 17 |
| CCn1ncc2c1CCC(Nc1nc3c(-c4ccc(OC)nc4)cccn3n1)C2 (stereo not shown) [Example 71, (1-Ethyl-4,5,6,7-tetrahydro-1H-indazol-5-yl)-[8-(6-methoxy-pyridin-3-yl)-[1,2,4]triazolo[1,5-a]pyridine-2-yl]-amine] | < 40 | 30 | < 40 | 23 | < 40 | 30 | < 40 | 21 |
| CCn1ncc2c1CCC(Nc1nc3c(-c4cncc(Cl)c4)cccn3n1)C2 (stereo not shown) [Example 73, [8-(5-Chloro-pyridin-3-yl)-[1,2,4]triazolo[1,5-a]pyridine-2-yl]-(1-ethyl-4,5,6,7-tetrahydro-1H-indazol-5-yl)-amine] | < 40 | 25 | < 40 | 24 | 40 to 80 | 62 | < 40 | 23 |
